Test results: patent US20150105252A1, “SUBSTITUTED PYRAZOLES AS HERBICIDES” (E I DU PONT DE NEMOURS AND COMPANY, priority 2013, published 2015)

What was measured:
corn = assay: Test A preemergence; assay type: in vivo, Zea mays; conditions: preemergence
Procedure, shortened: (§1)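 Seeds were sown in a loam soil–sand blend and given a directed soil spray preemergence; postemergence plants at 2–10 cm, one- to two-leaf stage, were sprayed with compound in non-phytotoxic solvent with surfactant. After about 10 days in a greenhouse, injury was visually rated against untreated controls (0 = no effect, 100 = complete control).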

crabgrass, large = assay: Test A postemergence; assay type: in vivo, Digitaria sanguinalis
Procedure, shortened: as §1

ryegrass, Italian [1] = assay: Test C preemergence; assay type: in vivo, Lolium multiflorum; conditions: for Plant response rating (scale of 0 to 100), Ryegrass, Italian: Preemergence, 250 g ai/ha; for Ryegrass, Italian plant response rating: preemergence
Procedure, shortened: (§2)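 Greenhouse pot test: preemergence application onto freshly seeded loam/sand mix, postemergence application onto seedlings (1–4 leaves, 2–18 cm) in peat-vermiculite substrate. Responses scored visually 13 to 15 days later relative to controls, where 0 means no effect and 100 means complete control; a dash indicates no result.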

pigweed [2] = assay: Test A postemergence; assay type: in vivo, Amaranthus retroflexus
Procedure, shortened: as §1

soybean = assay: Test C postemergence; assay type: in vivo, Glycine max; conditions: for Plant response rating (scale of 0 to 100 where 0 is no effect and 100 is complete control), Soybean: Postemergence, 31 g ai/ha, visually evaluated after 13 to 15 days; for Soybean plant response rating / Plant response rating, Soybean: postemergence; for Soybean plant response rating: 62 g ai/ha, scale 0 to 100
Procedure, shortened: as §2

oat, wild = assay: Test C postemergence; assay type: in vivo, Avena fatua; conditions: for Plant response rating (scale of 0 to 100 where 0 is no effect and 100 is complete control), Oat, Wild: Postemergence, 31 g ai/ha, visually evaluated after 13 to 15 days; for Oat, Wild plant response rating / Plant response rating, Oat, Wild: postemergence; for Oat, Wild plant response rating: 62 g ai/ha, scale 0 to 100
Procedure, shortened: as §2

pigweed [3] = assay: Test C postemergence; assay type: in vivo, Amaranthus retroflexus; conditions: for Plant response rating (scale of 0 to 100 where 0 is no effect and 100 is complete control), Pigweed: Postemergence, 31 g ai/ha, visually evaluated after 13 to 15 days; for Pigweed plant response rating / Plant response rating, Pigweed: postemergence; for Pigweed plant response rating: 62 g ai/ha, scale 0 to 100
Procedure, shortened: as §2

morningglory = assay: Test A preemergence; assay type: in vivo, Ipomoea spp.; conditions: preemergence
Procedure, shortened: as §1

sedge, umbrella = assay: Test B flood; assay type: in vivo, Cyperus difformis; conditions: 250 g ai/ha, visual rating on 0 to 100 scale (0 no effect, 100 complete control), 13 to 15 days
Procedure, shortened: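 Plants were grown to the 2-leaf stage and pots flooded to 3 cm above soil. Compounds were applied directly into the paddy water, with depth kept for the test. After 13–15 days in greenhouse, response was rated visually against controls on a 0 (no effect) to 100 (complete control) scale.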

ryegrass, Italian [4] = assay: Test C postemergence; assay type: in vivo, Lolium multiflorum; conditions: for Plant response rating (scale of 0 to 100 where 0 is no effect and 100 is complete control), Ryegrass, Italian: Postemergence, 31 g ai/ha, visually evaluated after 13 to 15 days; for Ryegrass, Italian plant response rating / Plant response rating, Ryegrass, Italian: postemergence; for Ryegrass, Italian plant response rating: 62 g ai/ha, scale 0 to 100
Procedure, shortened: as §2

lambsquarters = assay: Test C postemergence; assay type: in vivo, Chenopodium album; conditions: for Plant response rating (scale of 0 to 100 where 0 is no effect and 100 is complete control), Lambsquarters: Postemergence, 31 g ai/ha, visually evaluated after 13 to 15 days; for Lambsquarters plant response rating / Plant response rating, Lambsquarters: postemergence; for Lambsquarters plant response rating: 62 g ai/ha, scale 0 to 100
Procedure, shortened: as §2

wheat = assay: Test C preemergence; assay type: in vivo, Triticum aestivum; conditions: for Plant response rating (scale of 0 to 100), Wheat: Preemergence, 250 g ai/ha; for Wheat plant response rating: preemergence
Procedure, shortened: as §2

ragweed = assay: Test C preemergence; assay type: in vivo, Ambrosia elation; conditions: for Plant response rating (scale of 0 to 100), Ragweed: Preemergence, 250 g ai/ha; for Ragweed plant response rating: preemergence
Procedure, shortened: as §2

[5] = 125 g ai/ha, visual injury, 0 to 100 scale, approx. 10 days
[6] = 500 g ai/ha, visual injury after approx. 10 days, 0 to 100 scale (0 no effect, 100 complete control)
[7] = Postemergence, 500 g ai/ha, visual rating after approx. 10 days, 0 to 100 scale (0 no effect, 100 complete control)
[8] = postemergence, 125 g ai/ha, about 10 days, visual rating on 0 to 100 scale (0 no effect, 100 complete control)
[9] = 31 g ai/ha, visual rating, scale 0 to 100 (0 no effect, 100 complete control), 13 to 15 days
[10] = 62 g ai/ha, scale 0 to 100 (0 no effect, 100 complete control), 13 to 15 days
[11] = 125 g ai/ha, scale 0 to 100, 0 is no effect, 100 is complete control
[12] = 250 g ai/ha, scale 0 to 100 (0 no effect, 100 complete control)
[13] = 125 g ai/ha, scale 0 to 100, 0 no effect, 100 complete control

## CCc1cc(C(=O)NCC(F)(F)F)nn1Cc1cc(C(F)(F)F)nn1C [Compound 108, 5-ethyl-1-[[1-methyl-3-(trifluoromethyl)-1H-pyrazole-5-yl]methyl]-N-(2,2,2-trifluoroethyl)-1H-pyrazole-3-carboxamide]
corn; [5]
  Corn plant response rating: 30
corn; [6]
  Corn plant response rating: 90
crabgrass, large; [7]
  Crabgrass, Large plant response rating: 100
crabgrass, large; [8]
  Crabgrass, Large plant response rating: 90
ryegrass, Italian [1]
  Plant response rating (scale of 0 to 100), Ryegrass, Italian: 100
ryegrass, Italian [1]; [9]
  Ryegrass, Italian plant response rating: 30
ryegrass, Italian [1]; [10]
  Ryegrass, Italian plant response rating: 60
ryegrass, Italian [1]; [11]
  Ryegrass, Italian plant response rating: 90
Pigweed [2]; [7]
  Pigweed plant response rating: 100
Pigweed [2]; [8]
  Pigweed plant response rating: 90
soybean
  Plant response rating (scale of 0 to 100 where 0 is no effect and 100 is complete control), Soybean: 30
  Soybean plant response rating: 90
soybean; [12]
  Plant response rating, Soybean: 98
soybean; [13]
  Plant response rating, Soybean: 90
oat, wild
  Plant response rating (scale of 0 to 100 where 0 is no effect and 100 is complete control), Oat, Wild: 10
  Oat, Wild plant response rating: 10
oat, wild; [12]
  Plant response rating, Oat, Wild: 20
oat, wild; [13]
  Plant response rating, Oat, Wild: 15
Pigweed [3]
  Plant response rating (scale of 0 to 100 where 0 is no effect and 100 is complete control), Pigweed: 40
  Pigweed plant response rating: 45
Pigweed [3]; [12]
  Plant response rating, Pigweed: 90
Pigweed [3]; [13]
  Plant response rating, Pigweed: 50
morningglory; [5]
  Morningglory plant response rating: 100
morningglory; [6]
  Morningglory plant response rating: 100
sedge, umbrella
  Plant response rating, Sedge, Umbrella: 70
ryegrass, Italian [4]
  Plant response rating (scale of 0 to 100 where 0 is no effect and 100 is complete control), Ryegrass, Italian: 0
  Ryegrass, Italian plant response rating: 5
ryegrass, Italian [4]; [12]
  Plant response rating, Ryegrass, Italian: 20
ryegrass, Italian [4]; [13]
  Plant response rating, Ryegrass, Italian: 5
lambsquarters
  Plant response rating (scale of 0 to 100 where 0 is no effect and 100 is complete control), Lambsquarters: 60
  Lambsquarters plant response rating: 60
lambsquarters; [12]
  Plant response rating, Lambsquarters: 85
lambsquarters; [13]
  Plant response rating, Lambsquarters: 80
wheat
  Plant response rating (scale of 0 to 100), Wheat: 70
wheat; [9]
  Wheat plant response rating: 10
wheat; [10]
  Wheat plant response rating: 10
wheat; [11]
  Wheat plant response rating: 60
ragweed
  Plant response rating (scale of 0 to 100), Ragweed: 100
ragweed; [9]
  Ragweed plant response rating: 95
ragweed; [10]
  Ragweed plant response rating: 95
ragweed; [11]
  Ragweed plant response rating: 95

## CCCNC(=O)c1cc(CC)n(Cc2nc(C(F)(F)F)nn2C)n1 [Compound 109]
corn; [5]
  Corn plant response rating: 60
corn; [6]
  Corn plant response rating: 80
crabgrass, large; [7]
  Crabgrass, Large plant response rating: 90
crabgrass, large; [8]
  Crabgrass, Large plant response rating: 90
ryegrass, Italian [1]
  Plant response rating (scale of 0 to 100), Ryegrass, Italian: 100
ryegrass, Italian [1]; [9]
  Ryegrass, Italian plant response rating: 10
ryegrass, Italian [1]; [10]
  Ryegrass, Italian plant response rating: 50
ryegrass, Italian [1]; [11]
  Ryegrass, Italian plant response rating: 100
Pigweed [2]; [7]
  Pigweed plant response rating: 90
Pigweed [2]; [8]
  Pigweed plant response rating: 90
soybean
  Plant response rating (scale of 0 to 100 where 0 is no effect and 100 is complete control), Soybean: 55
  Soybean plant response rating: 60
soybean; [12]
  Plant response rating, Soybean: 75
soybean; [13]
  Plant response rating, Soybean: 75
oat, wild
  Plant response rating (scale of 0 to 100 where 0 is no effect and 100 is complete control), Oat, Wild: 0
  Oat, Wild plant response rating: 5
oat, wild; [12]
  Plant response rating, Oat, Wild: 5
oat, wild; [13]
  Plant response rating, Oat, Wild: 5
Pigweed [3]
  Plant response rating (scale of 0 to 100 where 0 is no effect and 100 is complete control), Pigweed: 10
  Pigweed plant response rating: 40
Pigweed [3]; [12]
  Plant response rating, Pigweed: 65
Pigweed [3]; [13]
  Plant response rating, Pigweed: 65
morningglory; [5]
  Morningglory plant response rating: 100
morningglory; [6]
  Morningglory plant response rating: 100
sedge, umbrella
  Plant response rating, Sedge, Umbrella: 0
ryegrass, Italian [4]
  Plant response rating (scale of 0 to 100 where 0 is no effect and 100 is complete control), Ryegrass, Italian: 5
  Ryegrass, Italian plant response rating: 5
ryegrass, Italian [4]; [12]
  Plant response rating, Ryegrass, Italian: 10
ryegrass, Italian [4]; [13]
  Plant response rating, Ryegrass, Italian: 5
lambsquarters
  Plant response rating (scale of 0 to 100 where 0 is no effect and 100 is complete control), Lambsquarters: 45
  Lambsquarters plant response rating: 45
lambsquarters; [12]
  Plant response rating, Lambsquarters: 85
lambsquarters; [13]
  Plant response rating, Lambsquarters: 65
wheat
  Plant response rating (scale of 0 to 100), Wheat: 85
wheat; [9]
  Wheat plant response rating: 0
wheat; [10]
  Wheat plant response rating: 15
wheat; [11]
  Wheat plant response rating: 85
ragweed
  Plant response rating (scale of 0 to 100), Ragweed: 100
ragweed; [9]
  Ragweed plant response rating: 100
ragweed; [10]
  Ragweed plant response rating: 100
ragweed; [11]
  Ragweed plant response rating: 100
